Reference: a melting point compilation (Tetko et al.; mined from patent text by program, amines drawn as free bases though some values may be those of a salt)

Work on `COc1cc(C=C(Br)Br)ccc1OC(C)C` yielded a melting point of 36 to 38 °C.
`CC(=NO)c1ccccc1N` gave a melting point of 55 to 60 °C.
With `COc1ccc(CCOc2cc(-c3cccc(C(=O)O)c3)ccn2)cc1OC` the melting point was 148 to 149 °C.
In the case of `Cc1ccc(S(=O)(=O)Oc2ccccc2-c2cc3c(C(N)=O)cccc3[nH]2)cc1`, the melting point is reported as 135 °C.
Work on `COC(=O)c1ccccc1Nc1cccc(C(C)NO)c1C` (configuration not stated) yielded a melting point of 114 to 116 °C.
With `CCOC(=O)COc1ccc(C(=O)CN2CCN(c3ccncc3)CC2=O)cc1` the melting point was 163 to 165 °C.
In the case of `CN1C(=O)C(NC(=O)NC2CCCCC2)N=C(c2ccccc2)c2ccccc21` (configuration not stated), the melting point is reported as 287 to 288 °C.
With `COc1ccc(C(=O)Nc2nc(-c3cccc(C#N)c3)c(-n3cncn3)s2)cc1` the melting point was 292 to 294 °C.
With `c1n[nH]c2c1Cc1[nH]ncc1-2` the melting point was 180 °C.
With `O=C(Nc1ccc(F)nc1)OCC(Cl)(Cl)Cl` the melting point was 114 to 115 °C.
In the case of `CSc1ccc2c(C(=O)C(F)(F)F)c[nH]c2c1`, the melting point is reported as 237 to 239 °C.
In the case of `Cc1cc(F)c(-n2cnc3ccccc3c2=O)cc1SCC(F)(F)F`, the melting point is reported as 145 to 147 °C.
For `CSc1nc(Cl)cc(-c2ccc(C(F)(F)F)cc2)n1`, the melting point was 93 to 96 °C.
`C=CCSC(=S)N1Cc2[nH]c3ccccc3c2CC1C(=O)O` (configuration not stated) gave a melting point of 161 to 162 °C.
Work on `Cc1ccc(S(=O)(=O)N(C)c2ccc(F)cc2[N+](=O)[O-])cc1` yielded a melting point of 93.5 to 94.5 °C.
`CCCCCCCCC#CCC#CCC#CCO` showed a melting point of 48 °C.
`NNC(=O)C(CC1CC2CCN1CC2)(c1ccccc1)c1ccccc1` (configuration not stated) gave a melting point of 158 to 160 °C.
Compound `N#Cc1cc(-c2ccnc(Nc3cccc(C(F)(F)F)c3)n2)ccn1` has a melting point of 164 to 166 °C.
In the case of `CC(=O)Sc1c(C)nn2c3ccccc3n(C(C)=O)c12`, the melting point is reported as 191 to 193 °C.
`CCOC(=O)c1sc2ccc(Cl)cc2c1C` gave a melting point of 92.5 to 94 °C.
Compound `N#Cc1ncn2c1[C@@H]1CCN1C(=O)c1sccc1-2` has a melting point of 211 to 213 °C.
Compound `FC(F)(F)c1ccccc1OCCCc1cn(C(c2ccccc2)(c2ccccc2)c2ccccc2)cn1` has a melting point of 204 to 208 °C.
With `Cc1ccc(Cn2nc(C(=O)NC3C(C)CCCC3C)cc2-c2ccc(Cl)c(Cl)c2)cc1Cl` (configuration not stated) the melting point was 59.9 °C.
`CC(C)C(/C=C/C(=O)O)=C(c1ccc(F)cc1)c1ccc(F)cc1` gave a melting point of 225 to 230 °C.
Compound `CC(C)(C#N)c1cc(Cn2cncn2)cc(-c2ccc(OS(N)(=O)=O)cc2)c1` has a melting point of 74 to 76 °C.
In the case of `CCN(CC)CCOC1=C(c2ccccc2)CN(Cc2ccc(Cl)cc2)C1=O`, the melting point is reported as 143 to 145 °C.
Compound `COC(=O)C(=O)c1ccc(OCCOc2ccc(C(F)(F)F)cc2)cc1` has a melting point of 96 to 98 °C.
With `CS(=O)(=O)O[C@@H](CO)[C@H](Cc1ccccc1)NC(=O)OCc1ccccc1` the melting point was 121 to 122 °C.
Compound `CC(=O)c1cnc2c(NC(=O)c3c(Cl)cccc3Cl)cccc2c1` has a melting point of 243 to 245 °C.
In the case of `COc1ccccc1[N+]1([O-])CCNCC1`, the melting point is reported as 157 to 160 °C.
`CCCN1C(=O)C2(COc3cc4c(cc32)OCO4)c2ccccc21` (configuration not stated) showed a melting point of 158 to 160 °C.
`CCOC(=O)c1noc(C(Cc2ccccc2)NC(=O)OC(C)(C)C)n1` (configuration not stated) gave a melting point of 72 to 76 °C.
In the case of `COCOc1cc(F)ccc1-c1cc(-c2cccc(C(=O)OC)c2)c(C#N)c(NC(=O)c2ccco2)n1`, the melting point is reported as 160 to 162 °C.
In the case of `Cc1cn(C(C)C(=O)N(C)C)nc1-c1ccc(Cl)s1` (configuration not stated), the melting point is reported as 112 to 114 °C.
`OC1(c2ccc(Cl)cc2)CCCNC12CCCCC2` (configuration not stated) gave a melting point of 158 to 164 °C.
In the case of `CC(C)(Sc1nc2ccccc2cc1-c1ccccc1)C(=O)O`, the melting point is reported as 144 to 146 °C.
For `Oc1nnc(O)c2c1CCCC2`, the melting point was 298 to 300 °C.
Compound `CNS(=O)(=O)c1ccc(Oc2ccncc2)cc1` has a melting point of 125 to 127 °C.
Work on `CC(=O)OC1CSC(Oc2cccc(-c3ncccc3F)c2)C(OC(C)=O)C1OC(C)=O` (configuration not stated) yielded a melting point of 51 °C.
In the case of `CCOC(=O)CCCCCCCn1c(-c2ccccc2)c(-c2ccccc2)[nH]c1=O`, the melting point is reported as 78 to 79 °C.
Compound `O=CC(c1ccccc1)c1nc(-c2ccncc2)cs1` (configuration not stated) has a melting point of 163 to 164 °C.
`CNC(=O)Oc1cccc(NC(=O)CC(C)=O)c1` showed a melting point of 142 °C.
